Reference: paper PMC10353549 (ACS Pharmacology & Translational Science, 2023)
Values joined by “and” are separate entries in the source; they are usually repeats but may differ in a detail not shown here. Identical values can stand only once. Like-named read-outs stand apart in the source and are kept apart here. Marks after values point to notes of the source that are not given here. Where a SMILES comes first, the peptide text is derived from it. [ ]: non-standard residue; d: D form. The star is where a group is joined. 1Nal = N[C@@H](Cc1cccc2ccccc12)C(=O)O; Nicotinoyl(6-F) = O=C(c1ccc(F)nc1)*; Cha = N[C@@H](CC1CCCCC1)C(=O)O; NMeS = CN[C@@H](CO)C(=O)O; hSer = N[C@@H](CCO)C(=O)O; Nle = CCCC[C@H](N)C(=O)O; Octanoyl = CCCCCCCC(=O)*; Abu = CC[C@H](N)C(=O)O; Dap = NC[C@H](N)C(=O)O; Inp = O=C(O)C1CCNCC1

Tests used:
[1] = Human liver S9 fraction stability; type: in vitro ADME; details: for half-life at 3 μM: human, pooled human liver S9 fraction
[2] = molecular target: T1, growth hormone secretagogue receptor 1a (GHSR) (Homo sapiens, UniProt Q92847); assay: biochemical
[3] = human serum from human male AB plasma; details: 37 °C, up to 24 h
[4] = Human serum stability; type: in vitro ADME
[5] = molecular target: GHSR (Homo sapiens, UniProt Q92847); assay: cell-based
[6] = molecular target: growth hormone secretagogue receptor 1a, eYFP tagged (GHSR-eYFP) (UniProt Q92847); assay: radioligand binding
[7] = Chemical stability in buffer; type: physicochemical; details: for chemical stability in buffer: 37 °C, over 24 h
[8] = molecular target: T1, growth hormone secretagogue receptor 1a (GHSR); details: read-out: IC50 (GHSR affinity); previous work; cited from earlier work
Target sequence in this assay (Q92847 whole entry, species assumed): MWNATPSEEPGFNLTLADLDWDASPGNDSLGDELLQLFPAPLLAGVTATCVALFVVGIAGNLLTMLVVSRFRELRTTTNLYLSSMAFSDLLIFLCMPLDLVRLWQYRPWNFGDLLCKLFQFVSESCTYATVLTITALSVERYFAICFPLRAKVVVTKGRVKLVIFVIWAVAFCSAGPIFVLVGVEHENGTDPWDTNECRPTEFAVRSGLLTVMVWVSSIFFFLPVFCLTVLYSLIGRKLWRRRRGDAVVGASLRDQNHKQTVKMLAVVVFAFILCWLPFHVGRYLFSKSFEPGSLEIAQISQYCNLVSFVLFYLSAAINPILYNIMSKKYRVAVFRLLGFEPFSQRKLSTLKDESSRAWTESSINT

[9] = human serum; cited from earlier work
[10] = pH 7.4, S9 t1/2, pooled human liver S9 fraction 1 mg/mL, peptide 3 μM, 37 °C, over 4 h
[11] = human liver S9 fraction, over 4 h

Chain of growth hormone secretagogue receptor 1a, eYFP tagged (GHSR-eYFP) (Q92847 whole entry): as the sequence (Q92847 whole entry, species assumed) above
Chain of GHSR (Q92847 whole entry, species assumed): as above

Row | Compound | half-life at 3 μM [1, 10] | IC50 [2] | other results
1 | CC(C)C[C@H](NC(=O)[C@H](Cc1cccc2ccccc12)NC(=O)[C@H](CNC(=O)c1ccc(F)nc1)NC(=O)[C@H](CO)NC(=O)C1CCNCC1)C(=O)N[C@@H](CC(N)=O)C(=O)N1CCC[C@H]1C(=O)N[C@H](C(N)=O)[C@@H](C)O [compound 18, Inp-S-Dpr(6-FN)-1Nal-LNPT-NH2] (H-[Inp]S[Dap](Nicotinoyl(6-F))[1Nal]LNPT-NH2) | > 4 h | 1.9 ± 0.56 nM | 
2 | CC(C)C[C@H](NC(=O)[C@H](Cc1cccc2ccccc12)NC(=O)[C@H](CNC(=O)c1ccc(F)nc1)NC(=O)[C@H](CO)NC(=O)C1CCNCC1)C(=O)N[C@@H](C(=O)N1CCC[C@H]1C(=O)N[C@H](C(N)=O)[C@@H](C)O)[C@H](C)O [compound 12, Inp-S-Dpr(6-FN)-1Nal-LtPT-NH2] (H-[Inp]S[Dap](Nicotinoyl(6-F))[1Nal]L[dT]PT-NH2) | > 4 h | 2.52 ± 0.32 nM | 
3 | CC(C)C[C@H](NC(=O)[C@H](Cc1cccc2ccccc12)NC(=O)[C@H](CNC(=O)c1ccc(F)nc1)NC(=O)[C@H](CO)NC(=O)C1CCNCC1)C(=O)N[C@@H](CS)C(=O)N1CCC[C@H]1C(=O)N[C@H](C(N)=O)[C@@H](C)O [compound 15, Inp-S-Dpr(6-FN)-1Nal-LCPT-NH2] (H-[Inp]S[Dap](Nicotinoyl(6-F))[1Nal]LCPT-NH2) | 0.95 h | 7.15 ± 0.18 nM | 
4 | Inp-S-Dpr(6-FN)-1Nal-L-S(N-Me)-PT-NH2 |  |  | not cleaved [3]: stable; serum t1/2 >24 h
5 | CC(C)C[C@H](NC(=O)[C@H](Cc1cccc2ccccc12)NC(=O)[C@H](CNC(=O)c1ccc(F)nc1)NC(=O)[C@H](CO)NC(=O)C1CCNCC1)C(=O)N[C@H](C(=O)N1CCC[C@H]1C(=O)N[C@H](C(N)=O)[C@@H](C)O)[C@@H](C)O [compound 16, Inp-S-Dpr(6-FN)-1Nal-LTPT-NH2] (H-[Inp]S[Dap](Nicotinoyl(6-F))[1Nal]LTPT-NH2) | 1.25 h | 0.62 ± 0.1 nM | 
6 | CCCC[C@H](NC(=O)[C@H](Cc1cccc2ccccc12)NC(=O)[C@H](CNC(=O)c1ccc(F)nc1)NC(=O)[C@H](CO)NC(=O)C1CCNCC1)C(=O)N[C@@H](CO)C(=O)N1CCC[C@H]1C(=O)N[C@H](C(N)=O)[C@@H](C)O [compound 13, Inp-S-Dpr(6-FN)-1Nal-Nle-SPT-NH2] (H-[Inp]S[Dap](Nicotinoyl(6-F))[1Nal][Nle]SPT-NH2) | 0.55 h | 1.5 ± 0.27 nM | 
7 | CC(C)C[C@H](NC(=O)[C@H](Cc1cccc2ccccc12)NC(=O)[C@H](CNC(=O)c1ccc(F)nc1)NC(=O)[C@H](CO)NC(=O)C1CCNCC1)C(=O)N[C@@H](CCC(N)=O)C(=O)N1CCC[C@H]1C(=O)N[C@H](C(N)=O)[C@@H](C)O [compound 19, Inp-S-Dpr(6-FN)-1Nal-LQPT-NH2] (H-[Inp]S[Dap](Nicotinoyl(6-F))[1Nal]LQPT-NH2) | 2.03 h | 1.21 ± 0.12 nM | 
8 | CC(C)C[C@@H](NC(=O)[C@H](Cc1cccc2ccccc12)NC(=O)[C@H](CNC(=O)c1ccc(F)nc1)NC(=O)[C@H](CO)NC(=O)C1CCNCC1)C(=O)N[C@@H](CO)C(=O)N1CCC[C@H]1C(=O)N[C@H](C(N)=O)[C@@H](C)O [compound 9, Inp-S-Dpr(6-FN)-1Nal-lSPT-NH2] (H-[Inp]S[Dap](Nicotinoyl(6-F))[1Nal][dL]SPT-NH2) | > 4 h | 56.5 ± 6.5 nM | stability in human serum ([4]; human serum, over 24 h): completely stable; stability in human liver S9 fraction [1, 11]: completely stable
9 | CC(C)C[C@H](NC(=O)[C@H](Cc1cccc2ccccc12)NC(=O)[C@H](CNC(=O)c1ccc(F)nc1)NC(=O)[C@H](CO)NC(=O)C1CCNCC1)C(=O)N[C@@H](CCO)C(=O)N1CCC[C@H]1C(=O)N[C@H](C(N)=O)[C@@H](C)O [compound 17, Inp-S-Dpr(6-FN)-1Nal-L-Hse-PT-NH2] (H-[Inp]S[Dap](Nicotinoyl(6-F))[1Nal]L[hSer]PT-NH2) | 1.4 h | 1.43 ± 0.08 nM | 
10 | CC[C@H](NC(=O)[C@H](CC(C)C)NC(=O)[C@H](Cc1cccc2ccccc12)NC(=O)[C@H](CNC(=O)c1ccc(F)nc1)NC(=O)[C@H](CO)NC(=O)C1CCNCC1)C(=O)N1CCC[C@H]1C(=O)N[C@H](C(N)=O)[C@@H](C)O [compound 20, Inp-S-Dpr(6-FN)-1Nal-L-Abu-PT-NH2] (H-[Inp]S[Dap](Nicotinoyl(6-F))[1Nal]L[Abu]PT-NH2) | 0.46 h | 2.54 ± 0.65 nM | EC50 [5]: 30 nM
11 | ghrelin(1–8) analogue 11, Inp-S-Dpr(6-FN)-1Nal-lsPT-NH2 (peptide) |  |  | IC50 [6]: 11.5 nM
12 | CC(C)C[C@H](NC(=O)[C@H](Cc1cccc2ccccc12)NC(=O)[C@H](CNC(=O)c1ccc(F)nc1)NC(=O)[C@H](CO)NC(=O)C1CCNCC1)C(=O)N(C)[C@@H](CO)C(=O)N1CCC[C@H]1C(=O)N[C@H](C(N)=O)[C@@H](C)O [compound 22, Inp-S-Dpr(6-FN)-1Nal-L-S(N-Me)-PT-NH2] (H-[Inp]S[Dap](Nicotinoyl(6-F))[1Nal]L[NMeS]PT-NH2) | > 4 h | 1.32 ± 0.58 nM | stability in human serum ([4]; human serum, over 24 h): stable; stability in human liver S9 fraction [1, 11]: stable; EC50 [5]: 119 nM
13 | CCCCCCCC(=O)NC[C@H](NC(=O)[C@H](CO)NC(=O)CN)C(=O)N[C@@H](Cc1ccccc1)C(=O)N[C@@H](CC(C)C)C(=O)N[C@@H](CO)C(=O)N1CCC[C@H]1C(=O)N[C@@H](CCC(=O)O)C(=O)O [compound 2, [Dpr^3(n-octanoyl)]ghrelin(1–8)] (H-GS[Dap](Octanoyl)FLSPE-OH) |  |  | Serum t1/2 ([4]; 25% human serum in PBS pH 7.4, 37 °C, peptide 1 mM, over 24 h): 2.0 h; time after which peptide was completely degraded in human serum ([4]; human serum, 37 °C): 6 h; half-life at 3 μM ([1]; pH 7.4): 0.57 h; chemical stability in buffer [7]: chemically stable
14 | ghrelin(1–8) analogue 23, Inp-S-Dpr(6-FN)-1Nal-β-homoL-SPT-NH2 (peptide) |  |  | IC50 [6]: 2.11 nM
15 | Inp-S-Dpr(6-FN)-1Nal-lSPT-NH2 |  |  | not cleaved [3]: completely stable; serum t1/2 >24 h
16 | CC(C)C[C@H](NC(=O)[C@H](Cc1cccc2ccccc12)NC(=O)[C@H](CNC(=O)c1ccc(F)nc1)NC(=O)[C@H](CO)NC(=O)C1CCNCC1)C(=O)N[C@@H](CO)C(=O)N1CCC[C@H]1C(=O)N[C@H](C(N)=O)[C@@H](C)O [compound 1, [Inp^1,Dpr^3(6-FN),1Nal^4,Thr^8]ghrelin(1–8) amide] (H-[Inp]S[Dap](Nicotinoyl(6-F))[1Nal]LSPT-NH2) | 1.1 h | 0.09 nM | time after which peptide was completely degraded in human liver S9 fraction ([1]; human liver S9 fraction, 37 °C): 4 h; S9 t1/2 ([1]; pooled human liver S9 fraction 1 mg/mL, peptide 3 μM, 37 °C, over 4 h): 1.08 h; chemical stability in buffer [7]: chemically stable; remaining at 24 h, 1 mM ([7]; phosphate-buffered saline, pH 7.4): 100%; IC50 [8]: 0.11 nM; Serum t1/2 [9]: 4.7 ^a h; EC50 [5]: 8 nM
17 | acylated human ghrelin(1–28) (ligand) |  |  | IC50 [6]: 2.48 nM
18 | C[C@@H](O)[C@H](NC(=O)[C@@H]1CCCN1C(=O)[C@H](CO)NC(=O)[C@H](CC1CCCCC1)NC(=O)[C@H](Cc1cccc2ccccc12)NC(=O)[C@H](CNC(=O)c1ccc(F)nc1)NC(=O)[C@H](CO)NC(=O)C1CCNCC1)C(N)=O [compound 14, Inp-S-Dpr(6-FN)-1Nal-Cha-SPT-NH2] (H-[Inp]S[Dap](Nicotinoyl(6-F))[1Nal][Cha]SPT-NH2) | 1.18 h | 1.88 ± 0.67 nM | 
19 | ghrelin(1–8) analogue 21, Inp-S-Dpr(6-FN)-1Nal-L-Dpr-PT-NH2 (peptide) |  |  | IC50 [6]: 0.32 nM
20 | CC(C)C[C@H](NC(=O)[C@H](Cc1cccc2ccccc12)NC(=O)[C@H](CNC(=O)c1ccc(F)nc1)NC(=O)[C@H](CO)NC(=O)C1CCNCC1)C(=O)N[C@H](CO)C(=O)N1CCC[C@H]1C(=O)N[C@H](C(N)=O)[C@@H](C)O [compound 10, Inp-S-Dpr(6-FN)-1Nal-LsPT-NH2] (H-[Inp]S[Dap](Nicotinoyl(6-F))[1Nal]L[dS]PT-NH2) | > 4 h | 3.55 ± 0.25 nM | 
21 | Inp-S-Dpr(6-FN)-1Nal-L-Dpr-PT-NH2 |  |  | not cleaved [3]: full stability over 24 h
22 | Inp-S-Dpr(6-FN)-1Nal-LSPT-NH2 |  |  | cleaved bond [3]: Leu5-Ser6, first_seen, 30 min; fragment found [3]: 4; 1Nal-L-OH and 5; Inp-S-Dpr(6-FNA)-OH
